In paper PMC4841555, “Optimization of the All-D Peptide D3 for Aβ Oligomer Elimination” (PLoS ONE, 2016):
pEC50: −log10 of the molar value. Non-standard residues stand in square brackets, D forms with d. Residues, ends and D or L forms follow the SMILES beside them.

Assays:
Assay type in all cases: biochemical
[1] = molecular target: T1, Aβ(1–42) oligomers (Homo sapiens, UniProt P05067); test: QIAD assay (Aβ oligomer elimination); conditions: 20 μM DB3, 80 μM Aβ(1–42) preincubated 4.5 h, 40 min with peptide, density gradient centrifugation, RP-HPLC, vs Aβ only control, triplicate
T1 construct: Aβ(1–42), N-terminally biotinylated Aβ(1–42) and FITC-Aβ(1–42) were purchased from Bachem; purchased Bachem (Heidelberg, Germany)
T1 sequence (P05067 672-713 limits assumed): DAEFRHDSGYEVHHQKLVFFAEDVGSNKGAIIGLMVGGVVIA
Procedure: The quantitative determination of interference with Aβ(1–42) aggregate size distribution (QIAD) was performed as described before. In brief, 80 μM Aβ(1–42) was incubated in 10 mM sodium phosphate buffer, pH 7.4 for 4.5 h at 22°C with 600 rpm agitation. Aβ(1–42) aggregation was continued for an additional 40 min with or without DB peptide. The obtained partial size distribution was analyzed by applying density gradient centrifugation. 100 μl of the incubated sample was placed on top of a gradient with 5 to 50% iodixanol (Optiprep, Axis-shield, Oslo, Norway) and separated at 259.000 x g for 3 h at 4°C using an ultracentrifuge (Optima MAX-XP, Beckman Coulter, Brea, USA). Fourteen fractions of 140 μl were taken from top to bottom. […] For quantification of the Aβ(1–42) amount in each fraction, reversed-phase high performance liquid chromatography (RP-HPLC) was performed using a Zorbax SB-300 C8 column (Agilent, Böblingen, Germany) connected to an Agilent 1260 Infinity system using 30% (v/v) acetonitrile with 0.1% (v/v) trifluoroacetic acid (TFA) as the mobile phase with a flow of 1 ml/min and a column temperature of 80°C. […] The UV absorption at 214 nm was measured. For quantification of the Aβ(1–42) amount, the area under the peak representing Aβ(1–42) was calculated and the molar concentration was determined using a calibration curve. […]

[2] = molecular target: T2, preformed Aβ(1–42) aggregates (Homo sapiens, UniProt P05067); test: Aβ aggregate disassembly ELISA; conditions: 400 nM Aβ(1–42) preincubated 22 h at 37°C, then with peptide 22 h (24 h) at 37°C, ELISA, triplicate
T2 construct: Aβ(1–42), N-terminally biotinylated Aβ(1–42) and FITC-Aβ(1–42) were purchased from Bachem; purchased Bachem (Heidelberg, Germany)
T2 sequence (P05067 672-713 limits assumed): as above
Procedure: Freshly dissolved monomeric Aβ(1–42) (400 nM in 500 mM Tris-buffer pH 7.4) was incubated in a humidity chamber for 22 h at 37°C in order to preform Aβ(1–42) aggregates. These preformed aggregates were coincubated with D-peptide in different concentrations (0.01, 0.05, 0.1, 0.5, 1, 5, 10, 50, 100 μM for DB3 or with half of the molar concentrations in case of DB3DB3) for additional 22 h at 37°C. The content of Aβ aggregates was measured and evaluated in the same way as the aggregation inhibition ELISA.
Fig 5 Inhibition of Aβ fibril formation and Aβ aggregation disassemble by DB3 and DB3DB3. A) Monomeric Aβ(1–42) (400 nM) was mixed with different concentrations of DB3 (0.01, 0.05, 0.1, 0.5, 1, 5, 10, 50, 100 μM) and the aggregation state of Aβ was analyzed using an Aβ aggregate specific ELISA. For DB3DB3 half of the molar concentrations compared to DB3 were used. Aβ without DB3 and DB3DB3 addition was taken as control. For DB3 an EC50 of 6 μM was calculated using a logistic fit model. DB3DB3 inhibited the formation of Aβ fibrils more efficiently with an EC50 of 7 nM. B) The disassembly properties of DB3 and DB3DB3 were measured using an Aβ aggregation specific ELISA. Monomeric Aβ(1–42) (400 nM) was preincubated in order to form fibrils and mixed with nine different concentrations of DB3 (0.01, 0.05, 0.1, 0.5, 1, 5, 10, 50, 100 μM). For DB3DB3, the molar concentrations were half those used for DB3. […] DB3DB3 disassembled Aβ aggregates at the lowest concentration […]. Thus, the EC50 could not be determined, but is < 10 nM. All data were determined in triplicate. The Mann-Whitney-U-test was performed for statistical analysis. * p< 0.05; ** p < 0.01; *** p < 0.001
The Aβ aggregate disassembly ELISA was used to analyze the effect of DB3 and DB3DB3 on preformed Aβ aggregates (Fig 5B). […] The Aβ aggregates specific ELISA was used to quantify Aβ aggregates. […] The results of measured Aβ aggregates normalized to the Aβ control were plotted against the peptide concentration. The EC50 was calculated by a logarithmic dose response function.

[3] = molecular target: T3, Aβ(1–42) (Homo sapiens, UniProt P05067); test: Thioflavin T (ThT) fibril formation assay; conditions: pH 7.4, 20 μM Aβ(1–42), 20 μM peptide (method: 31 μg/ml), 20 μM ThT, 10 mM sodium phosphate pH 7.4, 37°C, compared after 5 h with Aβ(1–42)-only control; read-out: inhibition of Aβ(1–42) fibril formation (ThT fluorescence)
T3 construct: Aβ(1–42), N-terminally biotinylated Aβ(1–42) and FITC-Aβ(1–42) were purchased from Bachem; purchased Bachem (Heidelberg, Germany)
T3 sequence (P05067 672-713 limits assumed): as above
Procedure: 20 μM Aβ(1–42) was mixed with 20 μM Thioflavin T (ThT) and 31 μg/ml DB3 or DB3DB3 in 10 mM sodium phosphate buffer, pH 7.4. The assay was performed using a non-binding 96 well plate (Greiner Bio-One, Frickenhausen, Germany). ThT fluorescence was measured every 15 min at λex = 440 nm and λem = 490 nm in a temperature-controlled plate reader (Polarstar Optima, BMG, Offenburg, Germany) at 37°C with 1 min agitation before every measurement. Each value was background corrected using the ThT fluorescence of a peptide solution without Aβ(1–42). To investigate the influence of DB1 to DB5 on Aβ fibril formation, a Thioflavin T (ThT) assay was performed. In an aqueous environment the benzothiazole dye has a low fluorescence. […] The emission at 490 nm is directly proportional to the quantity of amyloid fibrils. Fibril formation of Aβ can be followed in real time by measuring the ThT fluorescence. Therefore, the inhibitory effects of the D-peptides DB1 to DB5 and D3 were investigated by co-incubating these peptides with Aβ(1–42) and performing the ThT assay. Fluorescence emission data were compared after 5 h incubation, because after this period the Aβ(1–42) control (without added peptide) reached its fluorescence maximum. […] 20 μM Aβ(1–42) was mixed with 20 μM DB1 to DB5 or 10 μM DB3DB3 and the ThT fluorescence was monitored. Aβ(1–42) without peptide addition was taken as the control. The ThT fluorescence of all samples were compared after 5 h, where the control, Aβ(1–42) only, reached its maximum in fluorescence emission. The Mann-Whitney-U-test was used for statistical analysis. * p < 0.05; ** p < 0.01; *** p < 0.001.

reduction of the amount of Aβ oligomers [1]: ~ 27% | pEC50 [2]: 5.60 | inhibition at 31 µg/mL [3]: 80%
SMILES: CC[C@@H](C)[C@@H](NC(=O)[C@H]1CCCN1C(=O)[C@H](N)CCCNC(=N)N)C(=O)N[C@@H](C(=O)N[C@H](CCCNC(=N)N)C(=O)N[C@H](CC(C)C)C(=O)N[C@H](CCCNC(=N)N)C(=O)N[C@@H](C(=O)N[C@H](Cc1c[nH]cn1)C(=O)N[C@H](CCC(N)=O)C(=O)N[C@H](CC(N)=O)C(=O)N[C@H](CCCNC(=N)N)C(N)=O)[C@H](C)O)[C@H](C)O [DB3] (H-[dR][dP][dI][dT][dR][dL][dR][dT][dH][dQ][dN][dR]-NH2)
